Experimental data reported in the supplement of paper PMC10307832.

Compound: O=C(Nc1cc(C(F)(F)F)cc(C(F)(F)F)c1)c1cc(Cl)ccc1O [IMD-0354] + C[C@@H](Oc1cc(-c2cnn(C3CCNCC3)c2)cnc1N)c1c(Cl)ccc(F)c1Cl [Crizotinib] (partner 1 µM)
Experiment: relative viability (nuclei count vs DMSO), 5 days (fraction); higher = more cells survive
Settings: first compound 0.04 µM
Outline: (§1)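 Lung cancer cell lines were pin-tool dosed in 1536-well plates on the day after seeding, with either a lone drug or a fixed anchor-drug dose plus five library-drug doses (not always all listed) in √10 steps. Nuclei were counted on 4× images after 5 days. Relative viability is the ratio of treated-well to vehicle-well nuclei counts, with each value a median of duplicate plates.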

Point of comparison: NCI-H2023, relative viability 0.671. Against it:
- HCC-15 — higher, 0.872
- PC-14 — higher, 0.988
- EKVX — higher, 1.01
- LC-2-ad — lower, 0.431
- NCI-H1975 — higher, 1.15
- RERF-LC-KJ — higher, 0.861
- NCI-H650 — higher, 0.844
- PC-3 [JPC-3] — higher, 1.08

Same assay, conditions: first compound 0.1265 µM

Point of comparison: PC-3 [JPC-3], relative viability 1.01. Against it:
- NCI-H2023 — lower, 0.618
- HCC-15 — lower, 0.83
- PC-14 — lower, 0.92
- EKVX — lower, 0.993
- LC-2-ad — lower, 0.466
- NCI-H1975 — lower, 0.959
- RERF-LC-KJ — lower, 0.893
- NCI-H650 — lower, 0.714

Same assay, conditions: first compound 0.4 µM

Point of comparison: PC-3 [JPC-3], relative viability 0.601. Against it:
- NCI-H2023 — lower, 0.432
- HCC-15 — lower, 0.486
- PC-14 — lower, 0.357
- LC-2-ad — lower, 0.37
- NCI-H1975 — lower, 0.546
- RERF-LC-KJ — lower, 0.495
- NCI-H650 — lower, 0.542

Same assay, conditions: first compound 1.265 µM

Point of comparison: EKVX, relative viability 1.07. Against it:
- NCI-H2023 — lower, 0.172
- HCC-15 — lower, 0.274
- PC-14 — lower, 0.387
- LC-2-ad — lower, 0.358
- NCI-H1975 — lower, 0.211
- RERF-LC-KJ — lower, 0.311
- NCI-H650 — lower, 0.528
- PC-3 [JPC-3] — lower, 0.419

Same assay, conditions: first compound 4 µM

Point of comparison: NCI-H2023, relative viability 0.0868. Against it:
- HCC-15 — higher, 0.119
- PC-14 — higher, 0.179
- EKVX — higher, 0.246
- LC-2-ad — higher, 0.239
- NCI-H1975 — higher, 0.192
- RERF-LC-KJ — higher, 0.196
- NCI-H650 — higher, 0.2
- PC-3 [JPC-3] — higher, 0.18

Compound: Cc1cnc(CNC(=O)c2c(=O)c3ccc(N4CCCN(C)CC4)nc3n3c2sc2ccccc23)cn1 [CX-5461] + CC(C)C[C@H](NC(=O)[C@H](Cc1ccccc1)NC(=O)c1cnccn1)B(O)O [Bortezomib] (partner 0.002 µM)
Experiment: as above
Settings: first compound 0.01 µM
Outline: as §1

Point of comparison: LC-2-ad, relative viability 0.967. Against it:
- NCI-H2023 — higher, 1.04
- HCC-15 — higher, 1.04
- PC-14 — higher, 1.02
- EKVX — higher, 1.29
- NCI-H1975 — lower, 0.361
- RERF-LC-KJ — higher, 1.11
- NCI-H650 — lower, 0.887
- PC-3 [JPC-3] — lower, 0.745

Same assay, conditions: first compound 0.03162 µM

Point of comparison: NCI-H2023, relative viability 0.825. Against it:
- HCC-15 — higher, 1.16
- PC-14 — higher, 0.918
- EKVX — higher, 1.04
- LC-2-ad — higher, 1.09
- NCI-H1975 — lower, 0.357
- RERF-LC-KJ — higher, 1.1
- NCI-H650 — higher, 0.832
- PC-3 [JPC-3] — higher, 0.83

Same assay, conditions: first compound 0.1 µM

Point of comparison: NCI-H1975, relative viability 0.357. Against it:
- HCC-15 — higher, 1.02
- PC-14 — higher, 1.03
- EKVX — higher, 1.01
- LC-2-ad — higher, 1.06
- RERF-LC-KJ — higher, 1.15
- NCI-H650 — higher, 0.739
- PC-3 [JPC-3] — higher, 0.838

Same assay, conditions: first compound 0.3162 µM

Point of comparison: LC-2-ad, relative viability 1.06. Against it:
- NCI-H2023 — lower, 0.52
- HCC-15 — lower, 1.03
- PC-14 — lower, 0.837
- NCI-H1975 — lower, 0.358
- RERF-LC-KJ — higher, 1.09
- NCI-H650 — lower, 0.594
- PC-3 [JPC-3] — lower, 0.884

Same assay, conditions: first compound 1 µM

Point of comparison: EKVX, relative viability 0.838. Against it:
- NCI-H2023 — lower, 0.0872
- HCC-15 — lower, 0.731
- PC-14 — higher, 0.944
- LC-2-ad — lower, 0.638
- NCI-H1975 — lower, 0.154
- RERF-LC-KJ — higher, 1.01
